# Marks after values point to notes of the source that are not given here.
# Assays:
# [1] = tested on: Staphylococcus aureus ATCC 6538; assay: Minimum Inhibitory Concentration (MIC), broth dilution, visual pellet reading; format: cell-based; details: S. aureus ATCC 6538, material alone, 37° C., 24 hours, average of triplicates
# Description: The minimum inhibitory concentration (“MIC”) is the concentration (in ppm) of anti-bacterial agent that causes growth inhibition of bacteria so that no pellet is formed in the culture medium (as explained below in the method). […] Staphylococcus aureus ATCC 6538 is cultured onto tryptic soy agar (TSA) (Oxoid CM0131) over 24 hours. […] This gives 5×10^5 cfu/mL. […] The plate is then placed into a plastic sheet to minimize evaporation. The plate is then incubated at 37° C. for 24 hours. After 24 hours, the plate is removed and read visually to determine if a pellet is formed at the bottom of the well versus positive (without adding antibacterial material) and negative (without bacterial inoculum) growth controls. […] The experiment is carried out in triplicates and the MIC values are determined by the average of the results.
# [2] = NIST Standard Reference Database 46; cited from earlier work
# [3] = tested on: Staphylococcus aureus ATCC 6538; assay: Combinatorial Minimum Inhibitory Concentration (cMIC), OD 620 nm; details: for MIC: minimum amount of chelant at which there is no bacteria growth: chelator alone (0 ppm piroctone olamine)
# Description: A Combinatorial Minimum Inhibitory Concentration (“cMIC”) is used to determine the combinatorial effects of two chemicals on anti-bacterial activity in a tissue culture setting. Herein, the cMIC is a measure of the Minimum Inhibitory concentrations of 1-hydroxy-4-methyl-6-(2,4,4-trimethylpentyl)-2-pyridone monoethanolamine salt in combination with a chelant or vice versa.
# Method Overview: • a. Each cMIC assay is run in triplicates. • b. Staphylococcus aureus ATCC 6538 is cultured on tryptic soy agar (TSA) (Oxoid CM0131) over 24 hours. The single colonies are then transferred into saline and mixed through vortex to obtain an optical density (OD) of 0.08-0.13 at 620 nm. 200 uL of this bacterial suspension is added to 19.8 mL of Mueller Hinton Broth (MHB) (BD 212322). This gives 5×10^5 cfu/mL. 100 uL of this bacteria-MHB mix is added to a 96 well flat-bottomed plate (TRP 92196). • c. 1-hydroxy-4-methyl-6-(2,4,4-trimethylpentyl)-2-pyridone monoethanolamine salt is pipetted into the wells in varying concentrations as indicated below. • d. Different Chelants are pipetted into the wells in varying concentrations, as indicated below. • e. The plates are then read using a spectrophotometer at 620 nm. This is the 0-hour reading. • f. The plates are incubated at 37° C. for 18 hours with shaking at 50 rpm. • g. The optical density of the plate is then measured using a spectrophotometer at 620 nm. • h. The OD value is calculated as subtraction of the readings between 18-hour and the 0-hour. • i. cMIC is determined as the minimal concentration of 1-hydroxy-4-methyl-6-(2,4,4-trimethylpentyl)-2-pyridone monoethanolamine salt in combination with a chelant or vice versa, corresponding to the well whose OD value is less than 10% of the OD value of the control well without 1-hydroxy-4-methyl-6-(2,4,4-trimethylpentyl)-2-pyridone monoethanolamine salt and chelator (full growth).
# [4] = 3.125 ppm piroctone olamine combined with chelator (62.5 ppm DTPMP or 250 ppm DTPA), (MIC − cMIC)/MIC x 100%
# [5] = 6.25 ppm piroctone olamine combined with chelator (15.6 ppm DTPMP or 125 ppm DTPA)
# [6] = 6.25 ppm piroctone olamine combined with chelator (15.6 ppm DTPMP or 125 ppm DTPA), (MIC − cMIC)/MIC x 100%
# [7] = in the presence of 3.125 ppm piroctone olamine
# [8] = in the presence of 6.25 ppm piroctone olamine
MIC (ppm) [1],MIC: minimum amount of chelant at which there is no bacteria growth [3],Compound,Log K1 (iron binding affinity) [2],"Antibacterial Efficiency of piroctone olamine boosted by Chelator [3, 4]","boost of antibacterial efficacy of piroctone olamine alone (fold) [3, 5]","Antibacterial Efficiency of piroctone olamine boosted by Chelator [3, 6]","cMIC: minimum amount of chelant at which there is no bacteria growth in the presence of piroctone olamine [3, 7]","cMIC: minimum amount of chelant at which there is no bacteria growth in the presence of piroctone olamine [3, 8]",also measured
500 ppm,500^# ppm,"O=C(O)CN(CCN(CC(=O)O)CC(=O)O)CCN(CC(=O)O)CC(=O)O [DTPA, diethylenetriaminepentaacetic acid]",28,75%,2 fold,50%,250^## ppm,125^## ppm,
,,Cc1cc(CC(C)CC(C)(C)C)n(O)c(=O)c1.NCCO (stereo not shown) [reference compound],,,,,,,"MIC ([1]; Staphylococcus aureus, ATCC6538): 12.5 mg/L; Antibacterial Efficiency of piroctone olamine boosted by Chelator ([3]; 12.5 ppm piroctone olamine, 0 ppm chelator): 0; cMIC: minimum amount of piroctone olamine at which there is no bacteria growth in the presence of chelant ([3]; in the presence of 125 ppm DTPA): 6.25** ppm; cMIC: minimum amount of piroctone olamine at which there is no bacteria growth in the presence of chelant ([3]; in the presence of 250 ppm DTPA): 3.125** ppm; MICpiroctone olamine: minimum amount of the salt at which there is no bacteria growth ([3]; piroctone olamine alone (0 ppm chelator)): 12.5* ppm"
,,"CC(C(=O)O)N(CC(=O)O)CC(=O)O (stereo not shown) [MGDA, Methylglycine diacetic acid]",16,,,,,,
,,O=C(O)CC(O)(CC(=O)O)C(=O)O [Citric Acid],11,,,,,,
250 ppm,250^# ppm,"O=P(O)(O)CN(CCN(CP(=O)(O)O)CP(=O)(O)O)CCN(CP(=O)(O)O)CP(=O)(O)O [DTPMP, Diethylenetriaminepentakis (methylenephosphonic acid)]",23,75%,2 fold,50%,62.5^## ppm,15.6^## ppm,boost of antibacterial efficacy of piroctone olamine alone (fold) ([3]; 3.125 ppm piroctone olamine combined with chelator (62.5 ppm DTPMP or 250 ppm chelator)): 4 fold
,,"CC(=O)N(O)CCCCCNC(=O)CCC(=O)N(O)CCCCCNC(=O)CCC(=O)N(O)CCCCCN [Desferrioxamine, reference compound]",31,,,,,,
